Experimental data published in publication PMC10945555, “Improving Activity of New Arylurea Agents against Multidrug-Resistant and Biofilm-Producing Staphylococcus epidermidis” (ACS Medicinal Chemistry Letters, 2024).
≈ marks a conversion by molar mass, not a printed value. Read-outs that look alike come from different tables or passages of the source.

Experiments:
[1] = system: Staphylococcus aureus ATCC BAA-976; assay: MIC, broth microdilution, MDR/BPSA reference strain; type: cell-based; conditions: ATCCBAA976; Staphylococcus aureus ATCC BAA-976; read-out: MIC MDR/BPSA
Source text: These strains included susceptible, multidrug-resistant, and biofilm-producing strains of S. epidermidis and S. aureus (MSSE, MDR/BPSE, and MDR/BPSA, respectively). The cornerstone antibiotic linezolid served as a positive control (Table 1). The impact of structural modifications at the aryloxy fragment and the aromatic moiety bound to the propyl linker on the inhibitory activity was initially investigated. […] Further optimization focused on evaluating the impact of the type of substituent and its position on the arylsulfonamide fragment’s activity.
(§1) 2 Biological assay protocols
(§2) Microbiological tests were carried out under aseptic conditions in a laminar chamber of the 2nd […]
(§3) (BioTectum 1.2, Alchem Poland). The assessment of antimicrobial activity was carried out for final compounds in the form of free bases, soluble in DMSO (Merck, Germany), at the initial […]
(§4) concentration of 1 mg/mL. […]
were provided by Cayman Chemical, USA.
The activity of all newly synthesized compounds was tested in vitro on a panel of selected reference strains from the American Type Culture Collection (ATCC) of Gram-positive […]
(§5) 2.2 Effect of evaluated compounds on planktonic cells
(§6) The susceptibility of three reference bacterial strains (Staphylococcus epidermidis ATCC […]
(§7) Table S1) and 81 clinical MDR S. epidermidis (Table S2) to the tested compounds was assessed by determining the MIC value (Minimal Inhibitory Concentration) by microdilution in a liquid medium in 96-well flat-bottom cell culture plates (Nest Biotechnology Scientific, USA). The antibacterial properties of the compo unds were tested in the concentration range from 50 µg/mL to 0.1 µg/mL by making a series of double dilutions of the compound in liquid Mueller -Hinton II Broth Cation Adjusted (MHB II, BBL TM, USA) according to the European Committee on […]
(§8) Antimicrobial Susceptibility Testing guidelines (EUCAST).2,3 The determinations were performed twice. The MIC50 and MIC90 values were determined for each of the tested

[2] = system: clinical MDR Staphylococcus epidermidis isolates; assay: MIC, broth microdilution, 81 clinical MDR strains; type: cell-based; conditions: Staphylococcus epidermidis
Procedure: as §1, §2, §3, §4
were provided by Cayman Chemical, USA. […]
The antibacterial activity of selected compounds was also tested on a panel of 81 unrelated, multidrug -resistant clinical strains of Staphylococcus epidermidis from the own collection of the Department of Pharmaceutical Microbiology of the Jagiellonian University Medical College.
as §5, §6, §7, §8

`O=S(=O)(NC1CCN(CCC(Oc2ccc(C(F)(F)F)cc2)c2cccs2)CC1)c1cccc(C(F)(F)F)c1` (stereo not shown) [Compound 21] was tested, and the MIC [1] was 50 µg/mL (≈ 84.4 µM), the MIC ([2]; clinical strain 1 (Table S2), read-out: MIC) was 0.8 µg/mL (≈ 1.35 µM) and the MIC ([2]; clinical strain 2 (Table S2), read-out: MIC) was 6.25 µg/mL (≈ 10.5 µM). For the same compound, the MIC ([2]; clinical strain 3 (Table S2), read-out: MIC) was 6.25 µg/mL (≈ 10.5 µM), the MIC ([2]; clinical strain 4 (Table S2), read-out: MIC) was 50 µg/mL (≈ 84.4 µM) and the MIC ([2]; clinical strain 5 (Table S2), read-out: MIC) was 1.6 µg/mL (≈ 2.7 µM). The MIC ([2]; clinical strain 6 (Table S2), read-out: MIC) was 50 µg/mL (≈ 84.4 µM), the MIC ([2]; clinical strain 7 (Table S2), read-out: MIC) was 50 µg/mL (≈ 84.4 µM) and the MIC ([2]; clinical strain 8 (Table S2), read-out: MIC) was 6.25 µg/mL (≈ 10.5 µM). For the same compound, the MIC ([2]; clinical strain 9 (Table S2), read-out: MIC) was 3.12 µg/mL (≈ 5.27 µM), the MIC ([2]; clinical strain 10 (Table S2), read-out: MIC) was 50 µg/mL (≈ 84.4 µM) and the MIC ([2]; clinical strain 11 (Table S2), read-out: MIC) was 6.25 µg/mL (≈ 10.5 µM). The MIC ([2]; clinical strain 12 (Table S2), read-out: MIC) was 50 µg/mL (≈ 84.4 µM), the MIC ([2]; clinical strain 13 (Table S2), read-out: MIC) was 50 µg/mL (≈ 84.4 µM) and the MIC ([2]; clinical strain 14 (Table S2), read-out: MIC) was 50 µg/mL (≈ 84.4 µM). It also gave an MIC ([2]; clinical strain 15 (Table S2), read-out: MIC) of 50 µg/mL (≈ 84.4 µM), an MIC ([2]; clinical strain 16 (Table S2), read-out: MIC) of 50 µg/mL (≈ 84.4 µM) and an MIC ([2]; clinical strain 17 (Table S2), read-out: MIC) of 50 µg/mL (≈ 84.4 µM). The MIC ([2]; clinical strain 18 (Table S2), read-out: MIC) was 50 µg/mL (≈ 84.4 µM), the MIC ([2]; clinical strain 19 (Table S2), read-out: MIC) was 50 µg/mL (≈ 84.4 µM) and the MIC ([2]; clinical strain 20 (Table S2), read-out: MIC) was 3.12 µg/mL (≈ 5.27 µM). It also gave an MIC ([2]; clinical strain 21 (Table S2), read-out: MIC) of 3.12 µg/mL (≈ 5.27 µM), an MIC ([2]; clinical strain 22 (Table S2), read-out: MIC) of 6.25 µg/mL (≈ 10.5 µM) and an MIC ([2]; clinical strain 23 (Table S2), read-out: MIC) of 0.8 µg/mL (≈ 1.35 µM). For the same compound, the MIC ([2]; clinical strain 24 (Table S2), read-out: MIC) was 3.12 µg/mL (≈ 5.27 µM), the MIC ([2]; clinical strain 25 (Table S2), read-out: MIC) was 50 µg/mL (≈ 84.4 µM) and the MIC ([2]; clinical strain 26 (Table S2), read-out: MIC) was 50 µg/mL (≈ 84.4 µM). It also gave an MIC ([2]; clinical strain 27 (Table S2), read-out: MIC) of 0.8 µg/mL (≈ 1.35 µM), an MIC ([2]; clinical strain 28 (Table S2), read-out: MIC) of 50 µg/mL (≈ 84.4 µM) and an MIC ([2]; clinical strain 29 (Table S2), read-out: MIC) of 50 µg/mL (≈ 84.4 µM). It also gave an MIC ([2]; clinical strain 30 (Table S2), read-out: MIC) of 50 µg/mL (≈ 84.4 µM), an MIC ([2]; clinical strain 31 (Table S2), read-out: MIC) of 50 µg/mL (≈ 84.4 µM) and an MIC ([2]; clinical strain 32 (Table S2), read-out: MIC) of 50 µg/mL (≈ 84.4 µM). For the same compound, the MIC ([2]; clinical strain 33 (Table S2), read-out: MIC) was 50 µg/mL (≈ 84.4 µM), the MIC ([2]; clinical strain 34 (Table S2), read-out: MIC) was 50 µg/mL (≈ 84.4 µM) and the MIC ([2]; clinical strain 35 (Table S2), read-out: MIC) was 25 µg/mL (≈ 42.2 µM). For the same compound, the MIC ([2]; clinical strain 36 (Table S2), read-out: MIC) was 50 µg/mL (≈ 84.4 µM), the MIC ([2]; clinical strain 37 (Table S2), read-out: MIC) was 50 µg/mL (≈ 84.4 µM) and the MIC ([2]; clinical strain 38 (Table S2), read-out: MIC) was 50 µg/mL (≈ 84.4 µM). It also gave an MIC ([2]; clinical strain 39 (Table S2), read-out: MIC) of 50 µg/mL (≈ 84.4 µM), an MIC ([2]; clinical strain 40 (Table S2), read-out: MIC) of 50 µg/mL (≈ 84.4 µM) and an MIC ([2]; clinical strain 41 (Table S2), read-out: MIC) of 50 µg/mL (≈ 84.4 µM). The MIC ([2]; clinical strain 42 (Table S2), read-out: MIC) was 6.25 µg/mL (≈ 10.5 µM), the MIC ([2]; clinical strain 43 (Table S2), read-out: MIC) was 6.25 µg/mL (≈ 10.5 µM) and the MIC ([2]; clinical strain 44 (Table S2), read-out: MIC) was 50 µg/mL (≈ 84.4 µM). It also gave an MIC ([2]; clinical strain 45 (Table S2), read-out: MIC) of 50 µg/mL (≈ 84.4 µM), an MIC ([2]; clinical strain 46 (Table S2), read-out: MIC) of 50 µg/mL (≈ 84.4 µM) and an MIC ([2]; clinical strain 47 (Table S2), read-out: MIC) of 50 µg/mL (≈ 84.4 µM). The MIC ([2]; clinical strain 48 (Table S2), read-out: MIC) was 50 µg/mL (≈ 84.4 µM), the MIC ([2]; clinical strain 49 (Table S2), read-out: MIC) was 50 µg/mL (≈ 84.4 µM) and the MIC ([2]; clinical strain 50 (Table S2), read-out: MIC) was 50 µg/mL (≈ 84.4 µM). For the same compound, the MIC ([2]; clinical strain 51 (Table S2), read-out: MIC) was 50 µg/mL (≈ 84.4 µM), the MIC ([2]; clinical strain 52 (Table S2), read-out: MIC) was 50 µg/mL (≈ 84.4 µM) and the MIC ([2]; clinical strain 53 (Table S2), read-out: MIC) was 50 µg/mL (≈ 84.4 µM). For the same compound, the MIC ([2]; clinical strain 54 (Table S2), read-out: MIC) was 50 µg/mL (≈ 84.4 µM), the MIC ([2]; clinical strain 55 (Table S2), read-out: MIC) was 50 µg/mL (≈ 84.4 µM) and the MIC ([2]; clinical strain 56 (Table S2), read-out: MIC) was 50 µg/mL (≈ 84.4 µM). For the same compound, the MIC ([2]; clinical strain 57 (Table S2), read-out: MIC) was 50 µg/mL (≈ 84.4 µM), the MIC ([2]; clinical strain 58 (Table S2), read-out: MIC) was 50 µg/mL (≈ 84.4 µM) and the MIC ([2]; clinical strain 59 (Table S2), read-out: MIC) was 50 µg/mL (≈ 84.4 µM). For the same compound, the MIC ([2]; clinical strain 60 (Table S2), read-out: MIC) was 50 µg/mL (≈ 84.4 µM), the MIC ([2]; clinical strain 61 (Table S2), read-out: MIC) was 50 µg/mL (≈ 84.4 µM) and the MIC ([2]; clinical strain 62 (Table S2), read-out: MIC) was 50 µg/mL (≈ 84.4 µM). For the same compound, the MIC ([2]; clinical strain 63 (Table S2), read-out: MIC) was 50 µg/mL (≈ 84.4 µM), the MIC ([2]; clinical strain 64 (Table S2), read-out: MIC) was 50 µg/mL (≈ 84.4 µM) and the MIC ([2]; clinical strain 65 (Table S2), read-out: MIC) was 3.12 µg/mL (≈ 5.27 µM). It also gave an MIC ([2]; clinical strain 66 (Table S2), read-out: MIC) of 3.12 µg/mL (≈ 5.27 µM), an MIC ([2]; clinical strain 67 (Table S2), read-out: MIC) of 50 µg/mL (≈ 84.4 µM) and an MIC ([2]; clinical strain 68 (Table S2), read-out: MIC) of 50 µg/mL (≈ 84.4 µM). For the same compound, the MIC ([2]; clinical strain 69 (Table S2), read-out: MIC) was 50 µg/mL (≈ 84.4 µM), the MIC ([2]; clinical strain 70 (Table S2), read-out: MIC) was 50 µg/mL (≈ 84.4 µM) and the MIC ([2]; clinical strain 71 (Table S2), read-out: MIC) was 50 µg/mL (≈ 84.4 µM). It also gave an MIC ([2]; clinical strain 72 (Table S2), read-out: MIC) of 50 µg/mL (≈ 84.4 µM), an MIC ([2]; clinical strain 73 (Table S2), read-out: MIC) of 50 µg/mL (≈ 84.4 µM) and an MIC ([2]; clinical strain 74 (Table S2), read-out: MIC) of 50 µg/mL (≈ 84.4 µM). The MIC ([2]; clinical strain 75 (Table S2), read-out: MIC) was 50 µg/mL (≈ 84.4 µM), the MIC ([2]; clinical strain 76 (Table S2), read-out: MIC) was 50 µg/mL (≈ 84.4 µM) and the MIC ([2]; clinical strain 77 (Table S2), read-out: MIC) was 1.6 µg/mL (≈ 2.7 µM). For the same compound, the MIC ([2]; clinical strain 78 (Table S2), read-out: MIC) was 50 µg/mL (≈ 84.4 µM), the MIC ([2]; clinical strain 79 (Table S2), read-out: MIC) was 50 µg/mL (≈ 84.4 µM) and the MIC ([2]; clinical strain 80 (Table S2), read-out: MIC) was 50 µg/mL (≈ 84.4 µM). The MIC ([2]; clinical strain 81 (Table S2), read-out: MIC) was 50 µg/mL (≈ 84.4 µM), the MIC ([2]; mean of MIC values against clinical MDR-SE isolates, read-out: mean MIC) was 39.4 µg/mL (≈ 66.5 µM) and the MIC50 ([2]; 81 clinical strains, concentration inhibiting growth of 50% clinical isolates) was 50 µg/mL (≈ 84.4 µM). It also gave an MIC90 ([2]; 81 clinical strains, concentration inhibiting growth of 90% of clinical isolates) of 50 µg/mL (≈ 84.4 µM).
